Measured values: patent US20220062240A1, “METHODS OF TREATING CANCER USING A CLK INHIBITOR” (BioSplice Therapeutics, Inc., priority 2018, published 2022)
pEC50: −log10 of the molar value. Where two headings read alike, the source gives them in different places.

How the values were obtained:
CLK3 = CLK3 (Homo sapiens, UniProt P49761); assay: CLK3 kinase activity assay (Z-lyte, Ser/Thr 18 peptide)
[1] = tested on: ovarian cancer (4 cell lines); assay: CellTiter-Glo Viability Assay, ovarian cancer; type: cell-based; conditions: Homo sapiens, inhibition of cancer cell proliferation
CLK2 = biological target: T1, CLK2 (Homo sapiens, UniProt P49760); assay: CLK2 kinase activity assay (Z-lyte, Ser/Thr 6 peptide); type: biochemical; conditions: recombinant CLK2 kinase, ATP 60 μM; read-out: EC50
T1 construct: purchased Thermo Fisher (Life Technologies), Z'-LYTE Kinase Assay Kits
T1 sequence (P49760 whole entry): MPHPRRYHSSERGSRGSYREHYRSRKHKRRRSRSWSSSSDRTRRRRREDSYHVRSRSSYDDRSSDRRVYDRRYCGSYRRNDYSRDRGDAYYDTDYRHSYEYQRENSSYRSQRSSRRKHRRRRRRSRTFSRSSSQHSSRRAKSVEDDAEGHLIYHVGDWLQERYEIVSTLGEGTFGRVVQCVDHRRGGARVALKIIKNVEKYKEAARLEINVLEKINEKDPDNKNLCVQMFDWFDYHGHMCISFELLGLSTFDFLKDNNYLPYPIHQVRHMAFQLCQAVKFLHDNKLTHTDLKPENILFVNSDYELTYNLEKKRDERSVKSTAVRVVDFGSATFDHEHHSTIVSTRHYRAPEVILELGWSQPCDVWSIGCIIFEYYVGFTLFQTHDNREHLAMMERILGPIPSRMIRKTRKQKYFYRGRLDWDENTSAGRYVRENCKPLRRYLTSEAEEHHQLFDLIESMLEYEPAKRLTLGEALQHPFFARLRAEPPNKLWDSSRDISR
Description: All reactions were performed in duplicate.

[2] = tested on: prostate cancer (5 cell lines); assay: CellTiter-Glo Viability Assay, prostate cancer; type: cell-based; conditions: Homo sapiens
[3] = tested on: pancreatic cancer (8 cell lines); assay: CellTiter-Glo Viability Assay, pancreatic cancer; type: cell-based; conditions: Homo sapiens, inhibition of cancer cell proliferation
[4] = tested on: colorectal cancer (6 cell lines); assay: CellTiter-Glo Viability Assay, colorectal cancer; type: cell-based; conditions: Homo sapiens, inhibition of cancer cell proliferation
[5] = tested on: lung cancer (4 cell lines); assay: CellTiter-Glo Viability Assay, lung cancer; type: cell-based; conditions: Homo sapiens, inhibition of cancer cell proliferation
MDA-MB-231-Luc = assay: CellTiter-Glo Viability Assay, breast cancer; type: cell-based; conditions: Homo sapiens, 96 h; MDA-MB-231-Luc, breast cancer, four days; read-out: EC50
HCC1599 = assay: CellTiter-Glo Viability Assay, breast cancer; type: cell-based; conditions: Homo sapiens, 96 h; HCC1599, breast cancer, four days; read-out: EC50
MCF7 = assay: CellTiter-Glo Viability Assay, breast cancer; type: cell-based; conditions: Homo sapiens, 96 h; MCF7, breast cancer, four days; read-out: EC50
CAMA1 = assay: CellTiter-Glo Viability Assay, breast cancer; type: cell-based; conditions: Homo sapiens, CAMA-1, 96 h; CAMA1, breast cancer, four days; read-out: EC50
ZR-75-1 = assay: CellTiter-Glo Viability Assay, breast cancer; type: cell-based; conditions: Homo sapiens, 96 h; ZR-75-1, breast cancer, four days; read-out: EC50
DU4475 = assay: CellTiter-Glo Viability Assay, breast cancer; type: cell-based; conditions: Homo sapiens, DU-4475, 96 h; DU4475, breast cancer, four days; read-out: EC50
BT-549 = assay: CellTiter-Glo Viability Assay, breast cancer; type: cell-based; conditions: Homo sapiens, 96 h; BT-549, breast cancer, four days; read-out: EC50
T47D = assay: CellTiter-Glo Viability Assay, breast cancer; type: cell-based; conditions: Homo sapiens, 96 h, breast cancer, four days, read-out: EC50
all 50 cell lines = assay: CellTiter-Glo Viability Assay, average across all cell lines; type: cell-based; conditions: Homo sapiens; across all 50 cell lines; read-out: average EC50 for inhibition of cancer cell proliferation
Outline: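 Luminescent ATP read-out (CellTiter-Glo) after a 4-day compound exposure at 37° C served as the viability measure. Cells were seeded at 300-3,000/well, compound wells run in duplicate against DMSO controls, and EC50 values came from fitted dose-response curves.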

[6] = tested on: liver cancer (3 cell lines); assay: CellTiter-Glo Viability Assay, liver cancer; type: cell-based; conditions: Homo sapiens, inhibition of cancer cell proliferation
[7] = tested on: haematopoietic & lymphoid tumors (13 cell lines); assay: CellTiter-Glo Viability Assay, haematopoietic & lymphoid tumors; type: cell-based; conditions: Homo sapiens, inhibition of cancer cell proliferation
[8] = PA-1, PA1 cell line, read-out: Ovarian cancer, EC50 (μM) PA1
[9] = TOV112D, TOV-112D cell line, read-out: Ovarian cancer, EC50 (μM) TOV-112D
[10] = OV-90 cell line, read-out: Ovarian cancer, EC50 (μM) OV-90
[11] = OVCAR-3 cell line, read-out: Ovarian cancer, EC50 (μM) OVCAR-3
[12] = DU-145, read-out: Prostate cancer EC50 Du-145
[13] = PC-3, PC3 cell line, inhibition of cancer cell proliferation, read-out: Prostate cancer EC50 PC3
[14] = 22Rv1 cell line, inhibition of cancer cell proliferation, read-out: Prostate cancer EC50 22Rv1
[15] = LNCap clone FGC cell line, inhibition of cancer cell proliferation, read-out: Prostate cancer EC50 LNCap clone FGC
[16] = VCaP (Sigma) cell line, inhibition of cancer cell proliferation, read-out: Prostate cancer EC50 VCaP (Sigma)
[17] = BXPC-3, BxPC3 cell line, read-out: Pancreatic cancer, EC50 BxPC3
[18] = CAPAN-1, Capan1 cell line, read-out: Pancreatic cancer, EC50 Capan1
[19] = Capan-2, Capan2 cell line, read-out: Pancreatic cancer, EC50 Capan2
[20] = MIA PaCa-2 cell line, read-out: Pancreatic cancer, EC50 MIA PaCa-2
[21] = PANC 05.04 cell line, read-out: Pancreatic cancer, EC50 PANC 05.04
[22] = PANC-1 cell line, read-out: Pancreatic cancer, EC50 PANC-1
[23] = UPAFII cell line, read-out: Pancreatic cancer, EC50 UPAFII
[24] = SW480 cell line, read-out: Colorectal cancer, EC50 (μM) SW480
[25] = A-427, A427 cell line, read-out: Lung cancer, EC50 (μM) A427
[26] = HCC78, HCC-78 cell line, read-out: Lung cancer, EC50 (μM) HCC-78
[27] = NCI-H460 cell line, read-out: Lung cancer, EC50 (μM) NCI-H460
[28] = NCI-H522 cell line, read-out: Lung cancer, EC50 (μM) NCI-H522
[29] = SNU-398, SNU398 cell line, read-out: Liver cancer, EC50 SNU398
[30] = HEPG2 cell line, read-out: Liver cancer, EC50 HEPG2
[31] = PLC/PRF/5 cell line, read-out: Liver cancer, EC50 PLC/PRF/5
[32] = DND41, DND-41 cell line, read-out: Haematopoietic & Lymphoid tumors, EC50 (μM) DND-41
[33] = MV4-11, MV-4-11 cell line, read-out: Haematopoietic & Lymphoid tumors, EC50 (μM) MV-4-11
[34] = Rec1, REC-1 cell line, read-out: Haematopoietic & Lymphoid tumors, EC50 (μM) REC-1
[35] = SU-DHL-4, SUDHL4 cell line, read-out: Haematopoietic & Lymphoid tumors, EC50 (μM) SUDHL4
[36] = HL-60 cell line, read-out: Haematopoietic & Lymphoid tumors, EC50 (μM) HL-60
[37] = JM1 cell line, read-out: Haematopoietic & Lymphoid tumors, EC50 (μM) JM1
[38] = JURKAT, Clone E6-1 cell line, read-out: Haematopoietic & Lymphoid tumors, EC50 (μM) JURKAT, Clone E6-1
[39] = JeKo-1 cell line, read-out: Haematopoietic & Lymphoid tumors, EC50 (μM) JeKo-1
[40] = KASUMI-1 cell line, read-out: Haematopoietic & Lymphoid tumors, EC50 (μM) KASUMI-1
[41] = Loucy cell line, read-out: Haematopoietic & Lymphoid tumors, EC50 (μM) Loucy
[42] = MOLT-4 cell line, read-out: Haematopoietic & Lymphoid tumors, EC50 (μM) MOLT-4
[43] = TF-1 cell line, read-out: Haematopoietic & Lymphoid tumors, EC50 (μM) TF-1
[44] = TOLEDO cell line, read-out: Haematopoietic & Lymphoid tumors, EC50 (μM) TOLEDO

CLK3, sequence (P49761 whole entry): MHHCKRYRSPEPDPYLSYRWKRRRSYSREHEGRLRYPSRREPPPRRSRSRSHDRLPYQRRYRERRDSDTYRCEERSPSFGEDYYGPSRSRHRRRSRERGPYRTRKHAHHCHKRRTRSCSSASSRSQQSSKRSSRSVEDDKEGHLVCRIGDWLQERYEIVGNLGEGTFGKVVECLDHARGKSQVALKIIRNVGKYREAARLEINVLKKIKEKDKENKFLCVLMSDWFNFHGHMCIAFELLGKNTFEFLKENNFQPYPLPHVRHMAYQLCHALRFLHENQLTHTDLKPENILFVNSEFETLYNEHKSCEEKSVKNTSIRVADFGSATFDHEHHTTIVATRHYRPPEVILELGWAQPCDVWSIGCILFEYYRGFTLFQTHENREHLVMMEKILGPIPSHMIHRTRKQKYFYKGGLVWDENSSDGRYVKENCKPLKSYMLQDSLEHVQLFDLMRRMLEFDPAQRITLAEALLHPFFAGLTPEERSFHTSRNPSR

Cc1n[nH]c2cc(F)c(-c3cncc(CN4CCNCC4)c3)cc12 [Compound 63]
pEC50 (CLK3): 6.46
EC50 [1, 8]: 3.04 µM
EC50 [1, 9]: 3.63 µM
EC50 [1, 10]: 7.97 µM
EC50 [1, 11]: 2.62 µM
pEC50 (CLK2): 7.92
pEC50 [2, 12]: 5.19
pEC50 [2, 13]: 5.35
pEC50 [2, 14]: 5.40
pEC50 [2, 15]: 5.16
pEC50 [2, 16]: 5.18
pEC50 [3, 17]: 5.04
pEC50 [3, 18]: 5.31
pEC50 [3, 19]: 5.05
pEC50 [3, 20]: 5.80
pEC50 [3, 21]: 5.26
pEC50 [3, 22]: 5.25
pEC50 [3, 23]: 5.42
EC50 ([4]; HCT-116, HCT116 cell line, read-out: Colorectal cancer, EC50 (μM) HCT116): 2.93 µM
EC50 ([4]; HT-29, HT29 cell line, read-out: Colorectal cancer, EC50 (μM) HT29): 6.16 µM
EC50 ([4]; SW-620, SW620 cell line, read-out: Colorectal cancer, EC50 (μM) SW620): 1.82 µM
EC50 ([4]; DLD-1 cell line, read-out: Colorectal cancer, EC50 (μM) DLD-1): 5.01 µM
EC50 ([4]; SW48 cell line, read-out: Colorectal cancer, EC50 (μM) SW48): 1.49 µM
EC50 [4, 24]: 3.24 µM
EC50 [5, 25]: 4.18 µM
EC50 [5, 26]: 8.18 µM
EC50 [5, 27]: 7.41 µM
EC50 [5, 28]: 3.3 µM
pEC50 (MDA-MB-231-Luc): 5.19
pEC50 (HCC1599): 5.63
pEC50 (MCF7): < 5.00
pEC50 (CAMA1): 5.28
pEC50 (ZR-75-1): 5.17
pEC50 (DU4475): 5.41
pEC50 (BT-549): 5.32
pEC50 (T47D): 5.07
pEC50 (all 50 cell lines): 5.30
pEC50 [6, 29]: 5.86
pEC50 [6, 30]: 5.46
pEC50 [6, 31]: 5.02
EC50 [7, 32]: 7.09 µM
EC50 [7, 33]: 3.34 µM
EC50 [7, 34]: 3.52 µM
EC50 [7, 35]: 3.46 µM
EC50 [7, 36]: 8.7 µM
EC50 [7, 37]: 1.69 µM
EC50 [7, 38]: > 10 µM
EC50 [7, 39]: 1.49 µM
EC50 [7, 40]: 3.19 µM
EC50 [7, 41]: 3.72 µM
EC50 [7, 42]: 7.07 µM
EC50 [7, 43]: 6 µM
EC50 [7, 44]: 2.21 µM

Cc1n[nH]c2ccc(-c3cncc(N[C@H]4CC[C@@H](N)CC4)n3)cc12 [Compound 64]
pEC50 (CLK3): 6.32
EC50 [1, 8]: 0.2 µM
EC50 [1, 9]: 0.155 µM
EC50 [1, 10]: 0.179 µM
EC50 [1, 11]: 0.127 µM
pEC50 (CLK2): 8.77
pEC50 [2, 12]: 6.27
pEC50 [2, 13]: 6.53
pEC50 [2, 14]: 6.42
pEC50 [2, 15]: 6.20
pEC50 [2, 16]: 6.21
pEC50 [3, 17]: 6.44
pEC50 [3, 18]: 6.30
pEC50 [3, 19]: 6.44
pEC50 [3, 20]: 6.80
pEC50 [3, 21]: 6.37
pEC50 [3, 22]: 6.09
pEC50 [3, 23]: 6.39
EC50 [4, 24]: 0.123 µM
EC50 [5, 25]: 0.243 µM
EC50 [5, 26]: 0.725 µM
EC50 [5, 27]: 0.759 µM
EC50 [5, 28]: 0.396 µM
pEC50 (MDA-MB-231-Luc): 6.35
pEC50 (HCC1599): 6.58
pEC50 (MCF7): 6.20
pEC50 (CAMA1): 6.33
pEC50 (ZR-75-1): 6.68
pEC50 (DU4475): 6.92
pEC50 (BT-549): 6.64
pEC50 (T47D): 6.33
pEC50 (all 50 cell lines): 6.40
pEC50 [6, 29]: 7.23
pEC50 [6, 30]: 6.40
pEC50 [6, 31]: 5.83
EC50 [7, 32]: 0.186 µM
EC50 [7, 33]: 0.071 µM
EC50 [7, 34]: 0.812 µM
EC50 [7, 35]: 0.138 µM
EC50 [7, 36]: 0.488 µM
EC50 [7, 37]: 0.175 µM
EC50 [7, 38]: 0.624 µM
EC50 [7, 39]: 0.14 µM
EC50 [7, 40]: 0.275 µM
EC50 [7, 41]: 0.217 µM
EC50 [7, 42]: 0.383 µM
EC50 [7, 43]: 0.92 µM
EC50 [7, 44]: 0.269 µM
